Measurements taken from US20110207655A1, “CYCLIC DEPSIPEPTIDE COMPOUND AND USE THEREOF” (Astellas Pharma Inc., priority 2008, published 2011).
Starred links: 1 amine or outer side, 2 acyl side, 3 side chain; linkers in the order of their positions; H or OH if unused. Positions of bridges follow the written chain, without caps; N, C: chain ends. Non-standard residues stand in square brackets, D forms with d. Residues, ends and D or L forms follow the SMILES beside them. *: point of attachment. X8 = CC(=O)NC(C(=O)OC(C(C)C)C(N[*:1])C(=O)[*:2])C(O)C(C)C; X2 = CSCC(O)C(NC(C)=O)C(=O)OC(C(C)C)C(N[*:1])C(=O)[*:2]; X3 = CC(C)C(O[*:3])C(N[*:1])C(=O)[*:2]; X7 = O=C(C(Cc1ccccc1F)O[*:1])[*:2]; X4 = CCCC(=O)NC(C(=O)*)C(O)C(C)C; X5 = CSCC(=O)NC(C(=O)*)C(O)C(C)C; X6 = CCC(=O)NC(C(=O)*)C(O)C(C)C; PhLac = O=C(O)[CH](O)Cc1ccccc1; NMeT = CN[CH](C(=O)O)[CH](C)O; NMeA = CN[CH](C)C(=O)O; NMeDha = C=C(NC)C(=O)O

The molecules below were run on Gq/11 (assay: Inhibitory action on Gq/11: LTD4-induced cellular Ca2+ change in CHO cells stably expressing CysLTR2 (FLIPR)). Settings: 10 nM LTD4, maximum Fluo-4 fluorescence intensity, read-out: Gq/11 inhibitory activities (IC50 values).
Type: cell-based
Description: The test was carried out according to the method of Non-Patent Citation 3, using a leukotriene receptor CysLTR2 (cysteinyl leukotriene receptor 2), which is known to activate Gq/11. CHO cells stably expressing CysLTR2 were seeded on a 96-well black/clear bottom plate (manufactured by Becton, Dickinson and Company) at 20,000 cells per well, and after 24 hours of seeding, the medium was discarded. Then, Hanks BSS (GIBCO Inc.) including 2 μM Fluo-4, AM (manufactured by Molecular Probe Co.), 0.004% pluronic acid, 1% FBS, 20 mM HEPES, and 2.5 mM probenecid was added thereto at 100 μL per well, followed by incubation at 37° C. for 1 hour. After incubation, the resultant was washed four times with Hanks BSS including 20 mM HEPES, and Hanks BSS including 20 mm HEPES per well was added thereto 100 μL per well. In addition, 50 μL of a test compound that had been diluted with Hanks BSS including 20 mM HEPES to a final concentration from 1×10^−10 M to 1×10^−5 M was added thereto, followed by being left to stand at room temperature for 30 minutes. The change of cellular Ca^2+ concentration after addition of leukotriene D4 (LTD4, manufactured by Cayman Co.), which is a CysLTR2 ligand, was measured over time using an FLIPR (Molecular Device Corp.). 50 μL it of leukotriene D4 that had been diluted with Hanks BSS including 20 mM HEPES to a final concentration of 10 nM at 10 seconds after the initiation of measurement was added thereto, fluorescence intensities were measured every second for 50 seconds and every sixth second for 2 minutes, and a maximum fluorescence intensity during a measurement time of 3 minutes was observed. By plotting the concentrations and the fluorescence intensities of the test compounds, the IC50 values were calculated, which were taken as Gq/11 inhibitory activities.
In the case of `C=C1C(=O)NC(C)C(=O)N(C)C(C)C(=O)NC(C(OC(=O)C(NC(C)=O)C(O)C(C)C)C(C)C)C(=O)N(C)C(C(C)OC)C(=O)OC(C)C(NC(C)=O)C(=O)OC(Cc2ccccc2F)C(=O)N1C` (centres unmarked) [Ref 5] (Ac-T[X7][NMeDha]A[NMeA][X8][NMeT](Me); ester 1-C; configuration not given here), the IC50 is reported as 0.025 µM.

Same assay, conditions: read-out: Gq/11 inhibitory activities (IC50 values), 10 nM LTD4, maximum Fluo-4 fluorescence intensity
`C=C1C(=O)NC(C)C(=O)N(C)C(C)C(=O)NC(C(OC(=O)C(NC(C)=O)C(O)C(C)C)C(C)C)C(=O)N(C)C(C(C)O)C(=O)OC(C)C(NC(C)=O)C(=O)OC(Cc2ccccc2)C(=O)N1C` (centres unmarked) [Ex2] (Ac-T[PhLac][NMeDha]A[NMeA][X8][NMeT]; ester 1-C; configuration not given here) gave an IC50 of 0.317 µM.
`C=C1C(=O)NC(C)C(=O)N(C)C(C)C(=O)NC(C(OC(=O)C(NC(=O)CCC)C(O)C(C)C)C(C)C)C(=O)N(C)C(C(C)OC)C(=O)OC(C)C(NC(C)=O)C(=O)OC(Cc2ccccc2)C(=O)N1C` (centres unmarked) [Ex1] (Ac-T[PhLac][NMeDha]A[NMeA][X3](X4)[NMeT](Me); ester 1-C; configuration not given here) was tested, and the IC50 was 0.031 µM.
`C=C1C(=O)NC(C)C(=O)N(C)C(C)C(=O)NC(C(OC(=O)C(NC(=O)CC)C(O)C(C)C)C(C)C)C(=O)N(C)C(C(C)OC)C(=O)OC(C)C(NC(C)=O)C(=O)OC(Cc2ccccc2)C(=O)N1C` (centres unmarked) [Ref 2] (Ac-T[PhLac][NMeDha]A[NMeA][X3](X6)[NMeT](Me); ester 1-C; configuration not given here) gave an IC50 of 0.034 µM.
`C=C1C(=O)NC(C)C(=O)N(C)C(C)C(=O)NC(C(OC(=O)C(NC(C)=O)C(O)CSC)C(C)C)C(=O)N(C)C(C(C)OC)C(=O)OC(C)C(NC(C)=O)C(=O)OC(Cc2ccccc2)C(=O)N1C` (centres unmarked) [Ex3] (Ac-T[PhLac][NMeDha]A[NMeA][X2][NMeT](Me); ester 1-C; configuration not given here) was tested, and the IC50 was 0.097 µM.
`C=C1C(=O)NC(C)C(=O)N(C)C(C)C(=O)NC(C(OC(=O)C(NC(C)=O)C(O)CSC)C(C)C)C(=O)N(C)C(C(C)OC)C(=O)OC(C)C(NC(C)=O)C(=O)OC(Cc2ccccc2)C(=O)N1C` (centres unmarked) [Ex4] (Ac-T[PhLac][NMeDha]A[NMeA][X2][NMeT](Me); ester 1-C; configuration not given here) was tested, and the IC50 was 0.365 µM.
`COC(C)C1C(=O)OC(C)C(NC(C)=O)C(=O)OC(Cc2ccccc2)C(=O)N(C)C(C)C(=O)NC(C)C(=O)N(C)C(C)C(=O)NC(C(OC(=O)C(NC(C)=O)C(O)C(C)C)C(C)C)C(=O)N1C` (centres unmarked) [Ref 7] (Ac-T[PhLac][NMeA]A[NMeA][X8][NMeT](Me); ester 1-C; configuration not given here) was tested, and the IC50 was 0.032 µM.
With `C=C1C(=O)NC(C)C(=O)N(C)C(C)C(=O)NC(C(OC(=O)C(NC(=O)CSC)C(O)C(C)C)C(C)C)C(=O)N(C)C(C(C)OC)C(=O)OC(C)C(NC(C)=O)C(=O)OC(Cc2ccccc2)C(=O)N1C` (centres unmarked) [Ref 3] (Ac-T[PhLac][NMeDha]A[NMeA][X3](X5)[NMeT](Me); ester 1-C; configuration not given here) the IC50 was 0.056 µM.
